Experimental data from patent US20230066268A1, “INDAZOLE DERIVATIVES AND METHODS OF USE THEREOF FOR THE TREATMENT OF HERPES VIRUSES” (Merck Sharp & Dohme LLC, priority 2019, published 2023).
Where two headings read alike, the source gives them in different places.

Key:
[1] = test system: HSV-1, strain F in Vero cells; test: HSV CPE assay, HSV-1; format: cell-based
Method: (§1) Vero cells were maintained at 37° C./5% CO2/90% relative humidity in Dulbecco's Modified Eagle's Medium with 10% fetal bovine serum, […], 100 units/mL penicillin and 100 ug/mL streptomycin. For this assay, Vero cells (maintained at 37° C./5% CO2/90% relative humidity in Dulbecco's Modified Eagle's Medium with 10% fetal bovine serum, […], 100 units/mL penicillin and 100 μg/mL streptomycin) were seeded in 96-well microtiter plates and incubated for about 15 hours. They were then infected with HSV-1, strain F, or with HSV-2, strain G, at a multiplicity of infection known to result in 85-95% loss of cell viability during the assays, in the same media with 2% fetal bovine serum. Test compounds were dissolved in DMSO, and 6 point serial 10-fold dilutions in DMSO were prepared. Test compounds were added to infected cells, and the plates were incubated at 37° C./5% CO2/90% relative humidity for 5 days. Each plate contains cell control wells (cells only), virus control wells (cells plus virus), drug colorimetric control wells (drug only), background control wells (media only) and experimental wells (drug plus cells plus virus). Cytoprotection was assessed by the addition of Celltiter®96 Reagent (Promega, Madison, Wis.), according to manufacturer's recommendations. % cytopathic effect (CPE) reduction was calculated and IC50 (concentration inhibition virus replication by 50%) was reported.

[2] = test system: HSV-2, strain G in Vero cells; test: HSV CPE assay, HSV-2; format: cell-based
Method: as §1

[3] = test system: HCMV Strain AD169 in MRC-5 cells; test: CMV cell assay; format: cell-based
Method: MRCS and Vero cells were obtained from ATCC and were maintained at 37° C./5% CO2/90% relative humidity in Minimal Essential Medium with 10% fetal bovine serum, […], 100 units/mL penicillin and 100 ug/mL streptomycin. Assay plates were prepared by dispensing compounds dissolved in DMSO into wells of 384 well collagen-coated plates using an ECHO acoustic dispenser. Each test compound was tested in a 10-point, serial 3-fold dilution. Controls included uninfected cells and infected cells treated only with DMSO. Assays were initiated by mixing selected cells, in suspension, with virus, and dispensing 50 μl/well infected cells to pre-plated compounds. Plates were incubated at 37° C./5% CO2/90% relative humidity for ˜72 hours to permit genomic replication, and infected cells were lysed by the addition of an equal volume of lysis buffer (10 mM Tris-HCl, pH8, 50 mM KCl, 2 mM MgCl2, 0.45% NP-40, 0.45% Tween-20, and 100 μg/mL proteinase K). An aliquot of the lysate was then transferred to a 384-well PCR plate and incubated at 56° C. for 1 hour, and then at 95° C. for 10 minutes. Levels of a viral gene were measured in 10 ul qPCR assays using TaqMan® Gene Expression Master Mix (Applied Biosystems) and an 7900HT Fast Real-Time PCR System with 384-Well Block Module. 7-point, serial 10-fold dilutions of a plasmid standard were run on each plate to generate a standard curve, and genome copies numbers were calculated by plotting experimental Ct onto linear regression of the standard curve. Compound effects on viral genome copy number were normalized to the window defined by the controls. Calculated % effects were fit using a 4-parameter algorithm, and EC50 was reported.
HCMV: Strain AD169 was assayed in MRC-5 cells and was used at 0.05-0.1 pfu/cell. The assays were performed in either growth media or in the same media with 50% fetal bovine serum. Primer-probe set was Thermo Fisher Assay ID=AIFATFK. HSV-1: Strain F was assayed in Vero or MRCS cells and was used at 0.0005-0.004 pfu/cell in growth medium. Primer-probe set was Thermo Fisher Assay ID=AIBJZIB. HSV-2: Strain G was assayed in Vero or MRCS cells and was used at 0.004-0.4 pfu/cell in growth medium. Primer-probe set was Thermo Fisher Assay ID=AICSXOJ.

[4] = molecular target: T1, varicella zoster virus DNA polymerase (Varicella-zoster virus, UniProt P09252); test: VZV polymerase assay (AlphaLISA); format: biochemical; conditions: polymerase assay of Example 27, VZV polymerase 0.4 nM
T1 construct: made in house; host or cells: SF21 insect cells (baculovirus vector)
T1 sequence (P09252 whole entry): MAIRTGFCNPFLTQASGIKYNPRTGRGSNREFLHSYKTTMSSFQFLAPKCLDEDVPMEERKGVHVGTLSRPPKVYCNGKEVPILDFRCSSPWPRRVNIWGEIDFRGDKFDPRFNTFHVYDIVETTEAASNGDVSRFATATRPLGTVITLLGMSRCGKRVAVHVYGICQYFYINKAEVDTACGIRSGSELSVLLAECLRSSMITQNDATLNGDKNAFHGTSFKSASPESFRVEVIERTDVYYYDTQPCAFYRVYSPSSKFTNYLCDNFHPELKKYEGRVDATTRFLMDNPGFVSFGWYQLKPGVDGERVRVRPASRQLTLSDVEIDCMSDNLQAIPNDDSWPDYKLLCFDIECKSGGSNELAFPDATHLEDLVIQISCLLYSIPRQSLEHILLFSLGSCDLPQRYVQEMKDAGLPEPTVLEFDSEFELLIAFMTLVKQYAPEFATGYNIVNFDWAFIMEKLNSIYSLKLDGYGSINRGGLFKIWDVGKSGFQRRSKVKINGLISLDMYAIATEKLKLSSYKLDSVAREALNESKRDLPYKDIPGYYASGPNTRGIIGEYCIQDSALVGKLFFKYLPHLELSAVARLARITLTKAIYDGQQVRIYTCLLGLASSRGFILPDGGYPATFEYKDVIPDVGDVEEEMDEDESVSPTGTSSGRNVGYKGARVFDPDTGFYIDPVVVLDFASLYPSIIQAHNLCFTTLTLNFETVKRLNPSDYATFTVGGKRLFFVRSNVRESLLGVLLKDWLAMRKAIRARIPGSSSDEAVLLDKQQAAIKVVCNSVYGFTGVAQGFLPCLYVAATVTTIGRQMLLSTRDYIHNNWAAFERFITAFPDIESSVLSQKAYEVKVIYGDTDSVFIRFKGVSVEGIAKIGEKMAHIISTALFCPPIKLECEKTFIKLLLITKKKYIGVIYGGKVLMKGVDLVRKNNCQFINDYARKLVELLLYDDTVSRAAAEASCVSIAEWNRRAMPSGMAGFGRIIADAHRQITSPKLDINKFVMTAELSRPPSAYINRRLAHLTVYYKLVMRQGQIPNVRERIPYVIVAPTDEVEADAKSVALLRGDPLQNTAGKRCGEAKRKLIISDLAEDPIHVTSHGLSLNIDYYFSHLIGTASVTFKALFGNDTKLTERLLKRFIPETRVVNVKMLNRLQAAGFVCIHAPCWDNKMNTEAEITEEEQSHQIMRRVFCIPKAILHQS
Method: (§2) CMV and VZV Polymerase Assays
(§3) Human cytomegalovirus and varicella zoster virus DNA polymerases were expressed via baculovirus vector in SF21 cells and purified. Heterodimeric nucleic acid substrate used in the herpesvirus polymerase reactions were generated by annealing a 59-mer template to a 17-mer digoxigenin-labeled primer. Polymerase (HCMV final concentration of 0.2 nM; VZV final concentration of 0.4 nM) was combined with an inhibitor compound or DMSO in assay buffer (10 mM HEPES, pH 7.5, 25 mM KCl, 25 mM NaCl, 5 mM MgCl2, 5% glycerol, 0.67 mg/mL bovine serum albumin, and 1 mM tris(2-carboxyethyl)phosphine)), and this mixture was pre-incubated for 30 minutes at room temperature in 384-well microtiter plates. The polymerization reaction was initiated by the addition of template/primer substrate (final concentration: 1.6 nM) and dNTPs (final concentration: 24 nM dCTP, 24 nMdGTP, 16 nM dATP, 16 nM dTTP, and 0.8 nM biotin-dUTP). After a 60 minute incubation period at 37° C., the reactions were terminated using quench buffer (25 mM HEPES pH 7.5, 100 mM NaCl, 0.25% Tween-20, 12 mM EDTA, and 1 mg/mL bovine serum albumin). Incorporation of biotinylated UTP was detected with 2.5-5 μg/mL anti-DIG AlphaLISA acceptor beads and 5-10 μg/mL streptavidin AlphaLISA donor beads (PerkinElmer). Compound effects were normalized to the window defined by the controls (DMSO only and pre-quenched wells) and were fit using a 4-parameter algorithm to report an IC50.

[5] = molecular target: T2, Human cytomegalovirus DNA polymerase (Human cytomegalovirus, UniProt P08546); test: CMV polymerase assay (AlphaLISA); format: biochemical; conditions: polymerase assay of Example 27, HCMV polymerase 0.2 nM
T2 construct: made in house; host or cells: SF21 insect cells (baculovirus vector)
T2 sequence (P08546 whole entry): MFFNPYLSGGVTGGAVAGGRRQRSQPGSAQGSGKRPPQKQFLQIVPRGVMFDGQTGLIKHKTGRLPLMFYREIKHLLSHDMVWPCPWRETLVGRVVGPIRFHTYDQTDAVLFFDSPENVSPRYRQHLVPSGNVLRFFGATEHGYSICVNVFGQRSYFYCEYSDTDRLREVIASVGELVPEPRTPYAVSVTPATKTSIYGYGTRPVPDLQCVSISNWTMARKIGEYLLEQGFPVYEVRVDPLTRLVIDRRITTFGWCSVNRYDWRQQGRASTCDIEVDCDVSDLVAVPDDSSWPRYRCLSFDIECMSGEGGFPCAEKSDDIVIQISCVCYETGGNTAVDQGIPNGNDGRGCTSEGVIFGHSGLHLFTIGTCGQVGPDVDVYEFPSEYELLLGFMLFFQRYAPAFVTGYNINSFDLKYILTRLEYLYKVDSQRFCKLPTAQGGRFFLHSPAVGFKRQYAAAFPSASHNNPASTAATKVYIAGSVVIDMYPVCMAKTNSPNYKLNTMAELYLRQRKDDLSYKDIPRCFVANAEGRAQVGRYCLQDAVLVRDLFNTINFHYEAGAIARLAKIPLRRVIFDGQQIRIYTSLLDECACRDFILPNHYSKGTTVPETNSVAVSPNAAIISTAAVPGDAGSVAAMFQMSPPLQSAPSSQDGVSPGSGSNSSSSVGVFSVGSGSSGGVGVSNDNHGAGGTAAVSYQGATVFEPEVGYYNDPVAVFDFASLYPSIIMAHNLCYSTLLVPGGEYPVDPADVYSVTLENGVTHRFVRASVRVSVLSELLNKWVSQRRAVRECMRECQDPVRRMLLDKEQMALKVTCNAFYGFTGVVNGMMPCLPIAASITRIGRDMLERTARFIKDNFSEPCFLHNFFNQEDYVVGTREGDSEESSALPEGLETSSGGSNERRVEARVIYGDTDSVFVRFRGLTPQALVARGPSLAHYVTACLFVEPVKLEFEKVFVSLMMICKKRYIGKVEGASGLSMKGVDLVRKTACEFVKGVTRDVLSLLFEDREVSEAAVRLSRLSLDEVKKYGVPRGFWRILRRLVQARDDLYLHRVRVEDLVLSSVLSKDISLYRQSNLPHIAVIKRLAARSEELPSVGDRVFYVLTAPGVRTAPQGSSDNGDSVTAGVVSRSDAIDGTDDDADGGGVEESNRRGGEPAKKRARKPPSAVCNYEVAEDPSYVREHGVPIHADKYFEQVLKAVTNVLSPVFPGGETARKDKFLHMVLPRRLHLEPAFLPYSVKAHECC
Method: as §2, §3

[6] = Human alphaherpesvirus 1, 120 h, unstarred values: CPE assay of Example 25, Vero cells, 5 days, read-out: HSV1 Cell^b (EC50)
[7] = Human alphaherpesvirus 2, 120 h, unstarred values: CPE assay of Example 25, Vero cells, 5 days, read-out: HSV2 Cell^b CPE(EC50)
[8] = Human betaherpesvirus 5, AD169, MRC5, footnote b: assay described in Example 25, read-out: CMV Cell^b (EC50)
[9] = Human alphaherpesvirus 1, Vero, 120 h, read-out: HSV1 Cell^b (EC50), unstarred values: CPE assay of Example 25, Vero cells, 5 days
[10] = Human alphaherpesvirus 2, Vero, 120 h, read-out: HSV2 Cell^b CPE(EC50), unstarred values: CPE assay of Example 25, Vero cells, 5 days
[11] = Human betaherpesvirus 5, AD169, MRC5, read-out: CMV Cell^b (EC50), footnote b: assay described in Example 25
[12] = read-out: HSV1 Cell^b (EC50), unstarred values: CPE assay of Example 25, Vero cells, 5 days

## Cn1nc(C(=O)NCc2ccc(Cl)cc2)c2c3c(ccc21)C(N1CCOCC1)CC3 (single isomer, unassigned) [Compound 16]
[1]; [6]
  EC50: 1.5 µM
[2]; [7]
  EC50: 1.6 µM
[3]; [8]
  EC50: 0.97 µM
[4]; read-out: VZV^a (IC50)
  IC50: 0.038 µM
[5]; read-out: CMV^a (IC50)
  IC50: 0.26 µM

## Cc1c(N2CCn3nncc3C2)ccc2c(C(=O)NCc3ccc(C#N)cc3)nn(CCC#N)c12 [Compound 1]
[1]; [9]
  EC50: 1.6 µM
[2]; [10]
  EC50: 2.5 µM
[3]; [11]
  EC50: 0.12 µM
[4]; VZV^a (IC50)
  IC50: 0.013 µM
[5]; CMV^a (IC50)
  IC50: 0.053 µM

## Cc1c(N2CCn3nncc3C2)ccc2c(C(=O)NCc3ccc(Cl)cc3)nn(C3CCNC3)c12 (centres unmarked) [Compound 4]
[1]; [12]
  EC50: 3.1 µM
[2]; [10]
  EC50: 2.1 µM
[3]; [11]
  EC50: 0.085 µM
[4]; VZV^a (IC50)
  IC50: 0.016 µM
[5]; CMV^a (IC50)
  IC50: 0.037 µM

## Cc1c(N2CCn3nncc3C2)ccc2c(C(=O)NCc3ccc(Cl)cc3)nn(CCOCCO)c12 [Compound 5]
[1]; [9]
  EC50: > 40 µM
[2]; [10]
  EC50: 0.61 µM
[3]; [11]
  EC50: 0.097 µM
[4]; VZV^a (IC50)
  IC50: 0.012 µM
[5]; CMV^a (IC50)
  IC50: 0.033 µM

## Cc1c(N2CCn3nncc3C2)ccc2c(C(=O)NCc3ccc(Cl)cc3)nn(C3CCNC3)c12 (centres unmarked) [Compound 6]
[1]; [12]
  EC50: > 40 µM
[2]; read-out: HSV2 Cell^b CPE(EC50), unstarred values: CPE assay of Example 25, Vero cells, 5 days
  EC50: 3.7 µM
[3]; read-out: CMV Cell^b (EC50), footnote b: assay described in Example 25
  EC50: 0.11 µM
[4]; VZV^a (IC50)
  IC50: 0.019 µM
[5]; CMV^a (IC50)
  IC50: 0.045 µM

## O=C(NCc1ccc(Cl)cc1)c1n[nH]c2c(Cl)c(N3CCn4nncc4C3)ccc12 [Compound 7]
[1]; [6]
  EC50: 0.12 µM
[2]; [7]
  EC50: 0.2 µM
[3]; [8]
  EC50: 0.12 µM
[4]; read-out: VZV^a (IC50)
  IC50: 0.0051 µM
[5]; read-out: CMV^a (IC50)
  IC50: 0.022 µM

## Cc1cc(CN2CCCS(=O)(=O)CC2)cc2c(C(=O)NCc3ccc(C#N)cc3)nn(CCC#N)c12 [Compound 8]
[1]; [9]
  EC50: 6.4 µM
[2]; [10]
  EC50: 22 µM
[3]; [11]
  EC50: 0.15 µM
[4]; VZV^a (IC50)
  IC50: 0.062 µM
[5]; CMV^a (IC50)
  IC50: 0.103 µM

## Cn1nncc1COc1ccc2c(C(=O)NCc3ccc(Cl)cc3)nn(C)c2c1Cl [Compound 10]
[1]; [6]
  EC50: 0.25 µM
[2]; [7]
  EC50: 0.59 µM
[3]; [8]
  EC50: 0.46 µM
[4]; read-out: VZV^a (IC50)
  IC50: 0.012 µM
[5]; read-out: CMV^a (IC50)
  IC50: 0.041 µM

## N#Cc1c(N2CCn3nncc3C2)ccc2c(C(=O)NCc3ccc(Cl)cc3)n[nH]c12 [Compound 11]
[1]; [6]
  EC50: 0.48 µM
[2]; [7]
  EC50: 0.7 µM
[3]; [8]
  EC50: 0.093 µM
[4]; read-out: VZV^a (IC50)
  IC50: 0.0037 µM
[5]; read-out: CMV^a (IC50)
  IC50: 0.023 µM

## Cc1nnn(C)c1COc1ccc2c(C(=O)NCc3ccc(Cl)cc3)nn(C[C@@H](C)O)c2c1F [Compound 12]
[3]; [11]
  EC50: 0.3 µM
[4]; VZV^a (IC50)
  IC50: 0.0016 µM
[5]; CMV^a (IC50)
  IC50: 0.0071 µM

## Cc1c(NCc2cnnn2C)ccc2c(C(=O)NCc3ccc(Cl)cc3)n[nH]c12 [Compound 13]
[3]; [8]
  EC50: 0.32 µM
[4]; read-out: VZV^a (IC50)
  IC50: 0.005 µM
[5]; read-out: CMV^a (IC50)
  IC50: 0.017 µM

## Cn1nc(C(=O)NCc2ccc(Cl)cc2)c2ccc(N3CCn4nncc4C3)c(Br)c21 [Compound 15]
[1]; [6]
  EC50: 0.85 µM
[2]; [7]
  EC50: 0.93 µM
[3]; [8]
  EC50: 0.93 µM
[4]; read-out: VZV^a (IC50)
  IC50: 0.014 µM
[5]; read-out: CMV^a (IC50)
  IC50: 0.025 µM

## Cc1c(CN2CCCS(=O)(=O)CC2)ccc2c1c(C(=O)NCc1ccc(Cl)cc1)nn2C [Compound 18]
[1]; [6]
  EC50: 6.3 µM
[2]; [7]
  EC50: 6.1 µM
[3]; [8]
  EC50: 2.9 µM
[4]; read-out: VZV^a (IC50)
  IC50: 0.16 µM
[5]; read-out: CMV^a (IC50)
  IC50: 0.12 µM

## Cc1c(CN2CCOCC2)cc2c(C(=O)NCc3ccc(Cl)cc3)nn(C)c2c1C [Compound 22]
[3]; [8]
  EC50: 4.3 µM
[5]; read-out: CMV^a (IC50)
  IC50: 0.58 µM

## Cn1nc(C(=O)NCc2ccc([N+](=O)[O-])cc2)c2cc(CN3CCOCC3)ccc21 [Compound 23]
[3]; [8]
  EC50: 12 µM
[4]; read-out: VZV^a (IC50)
  IC50: 0.18 µM
[5]; read-out: CMV^a (IC50)
  IC50: 0.99 µM

## Cn1nc(C(=O)NCc2ccc(Br)cc2)c2cc(CN3CCOCC3)ccc21 [Compound 24]
[3]; [8]
  EC50: > 9.9 µM
[4]; read-out: VZV^a (IC50)
  IC50: 0.22 µM
[5]; read-out: CMV^a (IC50)
  IC50: 0.92 µM

## Cn1nc(C(=O)NCc2ccc(F)cc2)c2cc(CN3CCOCC3)ccc21 [Compound 26]
[4]; read-out: VZV^a (IC50)
  IC50: 0.74 µM
[5]; read-out: CMV^a (IC50)
  IC50: 3.3 µM

## Cn1nc(C(=O)NCc2ccc(Cl)cc2)c2cnc(N3CCn4nncc4C3)cc21 [Compound 28]
[3]; [8]
  EC50: 7.5 µM
[4]; read-out: VZV^a (IC50)
  IC50: 0.25 µM
[5]; read-out: CMV^a (IC50)
  IC50: 0.81 µM

## Cn1nc(C(=O)NCc2ccc(Cl)cc2)c2cc(CN3CCOCC3)ncc21 [Compound 29]
[4]; read-out: VZV^a (IC50)
  IC50: 1.6 µM
[5]; read-out: CMV^a (IC50)
  IC50: 2.4 µM

## Cn1nc(C(=O)NCc2ccc(Cl)cc2)c2ccc(N3CCn4nncc4C3)nc21 [Compound 30]
[4]; read-out: VZV^a (IC50)
  IC50: 3 µM
[5]; read-out: CMV^a (IC50)
  IC50: 1.6 µM

## Cn1cc(C(=O)NCc2ccc(Cl)cc2)c2ccc(N3CCn4nncc4C3)cc21 [Compound 31]
[4]; read-out: VZV^a (IC50)
  IC50: 0.12 µM
[5]; read-out: CMV^a (IC50)
  IC50: 0.19 µM
